Measurements reported in US6413976B1, “Compositions and method for decreasing neuropathic pain” (Trustees of Dartmouth College, priority 1999, dated 2002).

Legend:
[1] = tested on: spinal nerve transection in the rat; experiment: Spinal nerve transection model of chronic neuropathic pain, mechanical allodynia (von Frey filaments); format: in vivo; conditions: for mechanical allodynia: L5 spinal nerve transection, dose-dependent
Procedure: Experiments were performed using a well-established animal model for chronic pain, spinal nerve transection in the rat. The model measures changes in mechanical allodynia, or an increased sensitivity following non-noxious stimulus, such as touch. Rats were injected intraperitdneally one day before and then daily for ten days following nerve transection. […] The effect was dose-dependent, with larger reductions seen with higher doses of the drug.
The same model. was used with rats injected intrathecally with either saline or propentofylline (1 or 3 μg), daily for 10 days. […] The responses were also dose-dependent with the largest reduction seen at the highest dose tested.
Surgery was performed under inhalation anesthesia using halothane in 100% oxygen at 4% and maintained at 2%. Each rat received a single unilateral lesion directed at a left L5 spinal root or spinal nerve. The nerve was identified, freed from adjacent nerves and transected. For sham lesions, a minilaminectomy was performed of the L5 vertebral segment without lesioning. Animals were allowed to recover from anesthesia and were not subjected to any additional surgical procedures or anesthesia until the end of the study when they were euthanized.
Propentofylline was injected intraperitoneally at doses of 1 and 10 mg/kg the day before and for each day of testing (10 days). Saline injections served as a control. Other rats were injected intrathecally at doses of 1 and 3 μg on each day of testing.
Mechanical hypersensitivity was measured as the frequency of foot withdrawals elicited by a defined mechanical stimulus. […]
In blinded testing, rats were subjected to sequential series of 10 tactile stimulations to the plantar surface of the ipsilateral hindpaw using 2 and 12 gauge von Frey filaments (Stoelting Co., WoodDale, Ill.) sequentially. […] Mechanical sensitivity was assessed by recording the total number of responses elicited during three successive trials separated by at least 10 minutes.

[2] = tested on: humans with neurodegenerative disease; conditions: Alzheimer's Disease and vascular dementia; cited from earlier work
[3] = oral dosing; cited from earlier work

## CCCn1cnc2c1c(=O)n(CCCCC(C)=O)c(=O)n2C [propentofylline, Propentofylline]
[1]; intraperitoneal 1 and 10 mg/kg, one day before and daily for ten days
  mechanical allodynia: significant decrease in mechanical allodynia
[1]; intrathecal 1 or 3 μg daily for 10 days vs saline
  mechanical allodynia: significant decrease in mechanical allodynia
[1]; increasing doses, both central and peripheral routes
  responses to stimulation (foot withdrawals to von Frey filaments): dose-dependent decreases in responses to stimulation
[2]
  safety and efficacy in clinical trials: both safe and effective
[3]
  absorption and metabolism: well absorbed and extensively metabolized
